Results reported in patent publication US20240000758A1, “ELEVATION OF MITOCHONDRIAL BIOGENESIS AND FUNCTION BY INHIBITION OF PROSTAGLANDIN DEGRADING ENZYME 15-PGDH” (The Board of Trustees of the Leland Stanford Junior …, priority 2020, published 2024).
Entries after “also recorded” stand apart in the source; their conditions may differ.

Legend:
[1] = test system: cyclic AMP response element binding protein (CREB); assay: immunoblots of muscle lysates for CREB activation after PGE2 i.m. injection; assay type: in vivo, C57BL/6 mice; settings: young (3 mo.) mice, PGE2 i.m., 0, 30 or 60 minutes; FIG. 2A
Experimental: FIGS. 2A-2C. PGE2 treatment leads to activation of CREB in muscles and 15-PGDH inhibition leads to increased mitochondrial biogenesis and function in aged muscles. (FIG. 2A) Immunoblots of muscle lysates from young (3 mo.) C57BL/6 mice injected with PGE2 i.m. after 0, 30 or 60 minutes. (FIG. 2B) Quantification of immunoblot in (FIG. 2A) (n=3 mice per timepoint). (FIG. 2B) Representative images of intermyofibrillar (IMF) mitochondria from transmission electron micrographs (TEM) of longitudinal sections of EDL muscles of young, aged vehicle and aged SW (n=3 mice per condition; total mitochondria quantified, n=1,066 young, n=1,350 aged vehicle and n=1,371 aged SW). Different magnifications are as shown: 1,500×, 3,000× and 10,000× with […] respectively: 5 μm, 2 μm and 500 nm. (FIG. 2C) Citrate synthase activity of Quadriceps (Quad) muscles (n=13 aged vehicle and n=8 aged SW). *P<0.05, **P<0.01. ANOVA test with Fisher's LSD for multiple comparisons (FIG. 2B); unpaired t-test (FIG. 2C). Means±s.e.m.
To identify downstream signaling pathways through which 15-PGDH inhibition exerts its effects on aged muscles, we performed an unbiased transcriptomic analysis of aged muscles treated with vehicle or SW033291 (SW). […]

aged muscles [2] = assay: muscle atrophy (cross sectional area, muscle mass) in aged mice; assay type: in vivo; settings: aged treated with SW compared to vehicle controls
From the text: In addition, the morphology of the mitochondria improved. The shift in IMF mitochondrial area from compact and round in young to a larger size with more disorganized morphology in aged tissues was clearly evident, in agreement with reports by others (J. P. Leduc-Gaudet et al., Mitochondrial morphology is altered in atrophied skeletal muscle of aged mice. Oncotarget 6, 17923-17937 (2015); V. Romanello, M. Sandri, Mitochondrial Quality Control and Muscle Mass Maintenance. Front Physiol 6, 422 (2015)) (FIGS. 1D and 2B).

succinate dehydrogenase = succinate dehydrogenase (SDH) staining of TA cross-sections; assay type: in vivo, mice; settings: SW treated aged muscle; FIG. 1F
From the text: (§1) FIGS. 1A-1H. Boost in mitochondrial biogenesis and function is triggered by 15-PGDH inhibition in aged muscles. (FIG. 1A) Heatmap of mitochondrial genes. (FIG. 1B) Expression level of Pgc1α by qPCR (n=4 young, n=4 aged veh, n=3 aged SW033291 (SW)). (FIG. 1C) Relative quantification of mitochondrial DNA to nuclear DNA (n=4 per group). (FIG. 1D) Representative images and quantifications of intermyofibrillar (IMF) mitochondria numbers, their size, and myofibrillar width from transmission electron micrographs (TEM) of longitudinal sections of EDL muscles of young, aged vehicle and aged SW (n=3 mice per condition; total mitochondria quantified, n=1,066 young, n=1,350 aged vehicle and n=1,371 aged SW). Scale bar=2 μm. (FIG. 1E) Citrate synthase activity of Gastrocnemius muscles (n=3 young, n=4 aged vehicle and n=4 aged SW). (FIG. 1F) Representative TA cross-section stained for succinate dehydrogenase (SDH) (left). Quantification of SDH mean average intensity per fiber (n=4 mice per condition). (FIG. 1G) Representative images of mitochondrial membrane potential (TMRM staining) in isolated EDL myofibers from young, aged vehicle and SW treated mice (n=4 mice per condition; total number of fibers n=52 young, n=139 aged vehicle and n=89 aged SW). […] Quantification (right) (n=3 aged veh and SW). *P<0.05, **P<0.01, ***P<0.001, ****P<0.0001. […]

[3] = test system: intermyofibrillar (IMF) mitochondria of EDL muscles; assay: transmission electron microscopy (TEM) of Extensor digitorum longus (EDL) muscles; assay type: in vivo, mice
From the text: FIGS. 1A-1H. Boost in mitochondrial biogenesis and function is triggered by 15-PGDH inhibition in aged muscles. (FIG. 1A) Heatmap of mitochondrial genes. (FIG. 1B) Expression level of Pgc1α by qPCR (n=4 young, n=4 aged veh, n=3 aged SW033291 (SW)). (FIG. 1C) Relative quantification of mitochondrial DNA to nuclear DNA (n=4 per group). (FIG. 1D) Representative images and quantifications of intermyofibrillar (IMF) mitochondria numbers, their size, and myofibrillar width from transmission electron micrographs (TEM) of longitudinal sections of EDL muscles of young, aged vehicle and aged SW (n=3 mice per condition; total mitochondria quantified, n=1,066 young, n=1,350 aged vehicle and n=1,371 aged SW). Scale bar=2 μm. (FIG. 1E) Citrate synthase activity of Gastrocnemius muscles (n=3 young, n=4 aged vehicle and n=4 aged SW). (FIG. 1F) Representative TA cross-section stained for succinate dehydrogenase (SDH) (left). Quantification of SDH mean average intensity per fiber (n=4 mice per condition). (FIG. 1G) Representative images of mitochondrial membrane potential (TMRM staining) in isolated EDL myofibers from young, aged vehicle and SW treated mice (n=4 mice per condition; total number of fibers n=52 young, n=139 aged vehicle and n=89 aged SW). (FIG. 1H) Immunoblots of muscle lysates from: aged vehicle and SW treated mice together with colchicine, young mice without treatment, young mice treated with colchicine and young mice fasted and treated with colchicine. Quantification (right) (n=3 aged veh and SW). *P<0.05, **P<0.01, ***P<0.001, ****P<0.0001. ANOVA test with Tukey's test (FIG. 1D) or Fisher's LSD (FIGS. 1A, 1F, 1G) for multiple comparisons; Unpaired t-test (FIGS. 1C, 1E, 1H). Means±s.e.m.
(§2) FIGS. 2A-2C. […] (FIG. 2B) Quantification of immunoblot in (FIG. 2A) (n=3 mice per timepoint). (FIG. 2B) Representative images of intermyofibrillar (IMF) mitochondria from transmission electron micrographs (TEM) of longitudinal sections of EDL muscles of young, aged vehicle and aged SW (n=3 mice per condition; total mitochondria quantified, n=1,066 young, n=1,350 aged vehicle and n=1,371 aged SW). […]

[4] = test system: myofibers isolated from EDL muscles; assay: mitochondrial membrane potential (TMRM staining) in isolated EDL myofibers; assay type: in vivo; settings: myofibers from EDL muscles of SW treated aged mice compared to controls; FIG. 1G
From the text: as §1

p62 = assay: autophagy flux, western blot of p62 upon colchicine treatment; assay type: in vivo; settings: muscles of aged mice treated with SW compared to controls; FIG. 1H
From the text: as §1

citrate synthase = citrate synthase activity in isolated mitochondria of aged muscles; assay type: in vivo, mice; settings: SW-treated aged muscles compared to controls, FIGS. 1E and 2C
From the text: as §1, with “(FIG. 1F) Representative TA cross-section stained for succinate dehydrogenase (SDH) (left).” left out, “condition).” for “condition). (FIG. 1G) Representative images of mitochondrial membrane potential (TMRM staining) in isolated EDL myofibers from young, aged vehicle and SW treated mice (n=4 mice per condition; total number of fibers n=52 young, n=139 aged vehicle and n=89 aged SW).”
as §2

aged muscles [5] = assay: relative quantification of mitochondrial DNA to nuclear DNA in aged muscles; assay type: in vivo, mice; settings: SW treatment of aged muscles; FIG. 1C
From the text: as §1

aged muscles [6] = assay: unbiased transcriptomic analysis of aged muscles treated with vehicle or SW033291; assay type: in vivo, mice; settings: FIG. 1A
From the text: as §1

[7] = test system: peroxisome proliferator-activated receptor gamma coactivator 1-alpha (Pgc1α); assay: Pgc1α mRNA level by qPCR in aged muscles; assay type: in vivo, mice; settings: SW vs vehicle and young, FIG. 1B
From the text: as §1

SMILES | activation of CREB in skeletal muscles [1] | muscle atrophy (aged muscles [2]) | succinate dehydrogenase activity (succinate dehydrogenase) | number of intermyofibrillar (IMF) mitochondria ([3]; EDL muscles of aged mice after SW treatment, FIGS. 1D and 2B) | mitochondrial morphology ([3]; aged EDL muscles, one month of SW treatment, FIG. 1D) | myofibril width ([3]; aged treated with SW compared to vehicle controls, FIGS. 1D and 2B) | mitochondrial membrane potential [4] | autophagy flux (p62 upon colchicine treatment) (p62) | citrate synthase activity (citrate synthase) | mitochondrial DNA content relative to nuclear DNA content (aged muscles [5]) | components of mitochondria complexes I, II, IV and V of the electron transport chain (transcriptome) (aged muscles [6]; SW-treated aged muscles) | change in aged muscle tissue transcriptome: mitochondrial pathways (oxidative phosphorylation, ATP synthesis) (aged muscles [6]; aged muscles, SW vs vehicle) | mRNA level of Pgc1α [7]
CCCCC[C@H](O)/C=C/[C@H]1[C@H](O)CC(=O)[C@@H]1C/C=C\CCCC(=O)O [PGE2, Prostaglandin E2] | activates |  |  |  |  |  |  |  |  |  |  |  | 
CCCC[S+]([O-])c1sc2nc(-c3cccs3)cc(-c3ccccc3)c2c1N (stereo not shown) [SW, 2-(butylsulfinyl)-4-phenyl-6-(thiophen-2-yl)thieno[2,3-b]pyridin-3-amine] |  | attenuation of muscle atrophy | increased; also recorded: restored to young levels | increase | restored to a compact mitochondrial morphology resembling that seen in young | increase | increase; also recorded: restored to young levels | increased | significantly increased; also recorded: restored to young levels | increased | markedly increased | strong enrichment for mitochondrial pathways | restored to that seen in young muscles
